This is an account of results in patent US9603896B2, “Peptide compounds and methods of production and use thereof” (priority 2012, dated 2017).

Where two headings read alike, the source gives them in different places. Square brackets hold non-standard residues; d marks the D form. Ends that are not written are not given here. Peptide text beside a SMILES is read from it. AEEA = NCCOCCOCC(=O)O

A short description of one series: in vivo. The settings on record: rat, iv, 20 mg/kg. The method, then:
The purpose of this example was to assess the pharmacokinetics, distribution, and excretion of ^14C-BCC03-5RMP (SEQ ID NO:23) following a single intravenous administration to male rats. Pharmacokinetic, excretion, and distribution profiles of ^14C-BCC03-5RMP-derived radioactivity were examined in male Sprague Dawley rats following a single intravenous administration of ^14C-BCC03-5RMP (20 mg/kg; 125 μCi/kg). ^14C-BCC03-5RMP was formulated in 5% (v:v) dextrose in water, pH 5.5 and was administered at a dose volume of 5 mL/kg. For assessment of pharmacokinetics of total radioactivity (Group 1), blood was collected at 0.25, 0.5, 1, 2, 4, 8, 24, 48, and 72 hours postdose. For assessment of excretion profiles, urine was collected from 0-8 and 8-24 hours postdose, and at 24-hour intervals through 168 hours postdose. Feces was collected at 24-hour intervals through 168 hours postdose. For assessment of distribution profiles, one animal/time point was sacrificed at 0.25, 1, 4, 24, and 72 hours postdose, and the carcasses were prepared for quantitative whole-body autoradiography (QWBA). Concentrations of radioactivity in whole blood, plasma, urine, feces (after oxidation), cage rinse, cage wash, and carcass were determined by liquid scintillation counting (LSC). Tissue concentrations were calculated by interpolation from each standard curve using MCID™ analysis software (InterFocus Imaging Ltd Corp., UK). Pharmacokinetic parameters for total radioactivity in blood and plasma were calculated using WinNonlin Professional Edition (version 5.2, Pharsight Corporation, St. Louis, Mo.).

Series [1] has as its system human corneal epithelial cell (HCEC). As to the kind of experiment: HCEC chemotaxis, modified Boyden chemotaxis chamber assay. It counts as cell-based. The settings on record: for migration of HCECs vs buffer control: 120-146QH at 10^−4, 10^−6, 10^−8, 10^−10 M, 120-146QR at 10^−6, 10^−8 M, HB-EGF 50 ng/ml, rCAP37 250 ng/ml, 3 hours at 37° C; for migration compared with the whole CAP37 protein: 120-146QH at 10^−6 M and 10^−8M. Here is the method:
The effect of buffer control (0.1% BSA in Gey's buffer), heparin binding-epidermal growth factor (HB-EGF, 50 ng/ml), recombinant CAP37 (rCAP37, 250 ng/ml), 120-146QH (10^−12M, 10^−10 M, 10^−8 M, 10^−6M, and 10^−4M,) and 120-146QR (10^−10M, 10^−8M, 10^−6M, and 10^−4M) on HCEC chemotaxis was determined by the modified Boyden chemotaxis chamber method. HCEC chemotaxis was measured in response to HB-EGF, rCAP37, and peptides 120-146QH (SEQ ID NO:29) and 120-146QR (SEQ ID NO:28) after incubation for 3 hours at 37° C. Chemotaxis is expressed as a percent migration. The buffer control (no chemoattractant) is arbitrarily assigned the value of 100% migration. Data are expressed as means±SEM and are calculated from 6 observations for each test point. **P<0.01 by Wilcoxon signed-rank test as compared to controls.
Chemotaxis assays were performed using the modified Boyden chemotaxis chamber assay. Peptide 120-146QH was used at 10^−4 M, 10^−6 M, 10^−8 M, 10^−10 M, and 10^−12 M, and peptide 120-146QR was used at 10^−4 M, 10^−6M, 10^−8M, and 10^−10 M.

Series [2] relates to Pseudomonas aeruginosa ATCC® 27853™. The format is cell-based. Particulars: for Effects of Peptide Compounds on Pseudomonas aeruginosa ATCC ® 27853 ™: Table 6, 5 × 10^3 CFU/ml unless italicized = 1 × 10^5 CFU/ml. The method, then: (§1) The three peptide compounds BCC01-5RMP (SEQ ID NO:21), BCC02-5RMP (SEQ ID NO:22), and BCC03-5RMP (SEQ ID NO:23) were assayed for in vitro bactericidal activity against Pseudomonas aeruginosa, Escherichia coli, Salmonella typhimurium, and Acinetobacter baumannii. […] The CFU remaining at the end of 60 to 180 minute incubation was determined, and the data plotted as a log reduction in CFU/ml.
(§2) Tables 4-6 show the results of various peptides and peptide compounds against P. aeruginosa and E. coli strains. Tables 4 and 5 show the results of an investigation of the effects of peptide or peptide compounds BCC03-5RMP (SEQ ID NO:23), BCC03-MP (SEQ ID NO:24) and BCC03-5R (SEQ ID NO:20) against P. aeruginosa ATCC® strain 27853™ and E. coli ATCC® strain 25922™ (American Type Culture Collection, Manassas, Va.). […] Table 6 compares the activity of several other compounds, including the “5R” versions of BCC01, i.e., SEQ ID NO:18 (which comprises SEQ ID NO:1 with five additional arginines), the “5R” version of BCC02 (i.e., SEQ ID NO:19, which comprises SEQ ID NO:2 with five additional arginines), and BCC03-5RMP (SEQ ID NO:23), and BCC03-MP (SEQ ID NO:24, i.e., without the five additional R residues). The data generally indicate the superiority of BCC03-5RMP (SEQ ID NO:23) against E. coli, and the superiority of the 5R or 5RMP versions of the peptide over the “AEEA only” peptide against P. aeruginosa.
(§3) For FIGS. 10-13, in vitro bactericidal assays were performed using a starting inoculum of 1×10^6 CFU/ml of the bacterial suspension. The CFU remaining at the end of the 60-180 minute incubation was determined, and the data was plotted as log reduction in CFU/ml.
(§4) In particular, each of the test peptides (CAP37 peptides 120-146WR, 120-146WH, and 95-122 (SEQ ID NOs: 30, 31, and 26, respectively)) was used at 25, 12.5, 6.25, and 3.12 μM. Gentamicin was used at 4 μg/ml. 1×10^6/ml Acinetobacter baumannii ATCC® BAA-747″ or Pseudomonas aeruginosa ATCC® 27853™ (American Type Culture Collection, Manassas, Va.) were incubated with the peptides, negative buffer control (tryptone saline), and positive control gentamicin at pH 5.5 or 7.2. A 60 minute incubation was used for Acinetobacter baumannii ATCC® BAA747™, while a 180 minute incubation was used for Pseudomonas aeruginosa ATCC® 27853™. 50 μl aliquots were plated out on agar plates and incubated overnight. Colony forming units were counted after overnight incubation and CFU/ml calculated.
For FIG. 14, 1×10^6/ml Pseudomonas aeruginosa ATCC® 27853™ were incubated with each of the test peptides (CAP37 peptides 120-146WR, 120-146WH, 120-146QR, 120-146QH, 120-146QR-5RMP, and 120-146QH-5RMP (SEQ ID NOs: 30, 31, 28, 29, 32, and 33, respectively)) at 150, 75, and 37.5 μg/ml, or negative buffer control (tryptone saline), for 180 minutes at pH 5.5. 50 μl aliquots were plated out on agar plates and incubated overnight. Colony forming units were counted after overnight incubation and CFU/ml calculated.

Series [3] deals with E. coli ATCC® strain 25922™. The format is cell-based, Escherichia coli. The settings on record: Table 6, 5 × 10^3 CFU/ml unless italicized = 1 × 10^5 CFU/ml. The arrangement: Effects of Peptide Compounds on Escherichia coli ATCC ® 25922 ™: unit not given here. Here is the method:
as §1, §2

Series [4] has as its system Acinetobacter baumannii ATCC® BAA-747™. In words: In vitro bactericidal assay (CFU remaining, log reduction). It counts as cell-based. The settings on record: 60 minutes, peptides up to 25 μM, gentamicin 4 μg/ml. The method, then:
The three peptide compounds BCC01-5RMP (SEQ ID NO:21), BCC02-5RMP (SEQ ID NO:22), and BCC03-5RMP (SEQ ID NO:23) were assayed for in vitro bactericidal activity against Pseudomonas aeruginosa, Escherichia coli, Salmonella typhimurium, and Acinetobacter baumannii. The starting inoculum for all experiments was 1×10^6 colony forming units (CFU)/ml. The CFU remaining at the end of 60 to 180 minute incubation was determined, and the data plotted as a log reduction in CFU/ml.
as §3, §4

Take `CC[C@H](C)[C@H](NC(=O)[C@H](CC(C)C)NC(=O)[C@H](C)NC(=O)CNC(=O)CNC(=O)[C@H](CS)NC(=O)[C@H](Cc1ccccc1)NC(=O)[C@H](Cc1c[nH]cn1)NC(=O)[C@H](CCCNC(=N)N)NC(=O)CNC(=O)[C@H](CCC(N)=O)NC(=O)[C@H](CC(N)=O)NC(=O)[C@H](CCCNC(=N)N)NC(=O)[C@H](CCCNC(=N)N)NC(=O)[C@H](CCCNC(=N)N)NC(=O)[C@H](CCCNC(=N)N)NC(=O)COCCOCCNC(=O)COCCOCCN)C(=O)N[C@@H](Cc1c[nH]cn1)C(=O)N[C@@H](C)C(=O)N[C@@H](CCCNC(=N)N)C(=O)N[C@@H](Cc1ccccc1)C(=O)N[C@H](C(=O)N[C@@H](CCSC)C(=O)N[C@H](C(=O)N[C@@H](C)C(=O)N[C@@H](C)C(=O)N[C@@H](CO)C(=O)N[C@@H](CO)C(=O)N[C@@H](Cc1ccccc1)C(=O)N[C@@H](CCC(N)=O)C(=O)N[C@@H](CCCNC(=N)N)C(=O)O)[C@@H](C)O)C(C)C` [^14C-BCC03-5RMP] (H-[AEEA][AEEA]RRRRNQGRHFCGGALIHARFVMTAASSFQR-OH; N-terminus and C-terminus assumed): the blood plasma ratio in “in vivo” (male, Sprague Dawley, total radioactivity) was 0.689 to 3.11. In the series “in vivo”, the “C0, Radio-equivalents in blood” value was 38500 ± 2160 ng eq/g; the “C0, Radio-equivalents in plasma” value came out at 51800 ± 4160 ng eq/g; the “Clearance of radioactivity, plasma relative to blood” value was “approximately 2 fold”; the “blood:brain barrier passage of radioactivity” value is reported as “crossed the blood:brain barrier”. Moreover, in “in vivo”, the “blood:testis barrier passage of radioactivity” value is given as “crossed the blood:testis barrier”; the “exposure (AUC0-∞), blood relative to plasma” value is “approximately 2 fold”; the “tissue:plasma concentration ratios, majority of tissues” value is “greater than one”; the “tissue:plasma concentration ratios, renal, adrenal, pancreatic, and pituitary tissues” value is on record as “up to 103”. Also, the “volume of distribution of total radioactivity, blood relative to plasma” value in the series “in vivo” was “approximately 1.6 fold”.

As to “GTRCQVAGWGSQHSGGRLSRFPRFVNV [Peptide 120-146QH]”, in series [1], the “migration of HCECs vs buffer control” value is given as “significantly increase migration” and the “migration compared with the whole CAP37 protein” value is listed as “comparable to the migration obtained with the whole CAP37 protein”.

“GTRCQVAGWGSQRSGGRLSRFPRFVNV [Peptide 120-146QR]”: in series [1], the “migration of HCECs vs buffer control” value is “significantly increase migration” and the “migration compared with the whole CAP37 protein” value is on record as “less than the migration obtained with the whole protein”.

As for “RRRRNQGRHFCGGALIHARFVMTAASCFQR (also: cyclized) [SEQ ID NO: 18 (Cyclized)]”, the “Effects of Peptide Compounds on Pseudomonas aeruginosa ATCC ® 27853 ™” value in series [2] (0.78 μg/ml) was 99.6; in series [2] (1.56 μg/ml) it was 98.4; in series [2] (3.125 μg/ml) it was 100.0; in series [2] (6.25 μg/ml), 100.0; in series [2] (12.5 μg/ml), 100.0; in series [2] (25 μg/ml) it was 100.0. Further, the “Effects of Peptide Compounds on Pseudomonas aeruginosa ATCC ® 27853 ™” value in series [2] (50 μg/ml), in series [2] (100 μg/ml), in series [2] (200 μg/ml) and in series [2] (400 μg/ml) was 100.0 each time. Further, the “Effects of Peptide Compounds on Escherichia coli ATCC ® 25922 ™” value in series [3] (12.5 μg/ml) was 37.9; in series [3] (25 μg/ml), 38.0; in series [3] (50 μg/ml), 49.3; in series [3] (100 μg/ml) it was 52.6; in series [3] (200 μg/ml) it was 59.6; in series [3] (400 μg/ml) it was 82.0.

In the case of gentamicin [reference compound], in series [2] (120-146WR at 25 μM, gentamicin 4 μg/ml), the “activity against P. aeruginosa” value was “highly active”. In addition, in series [2] (pH 5.5, 180 minutes, highest concentrations of peptides (25 μM), gentamicin 4 μg/ml), the “reduction of CFU/ml” value is reported as 2 logs. Besides, the “bactericidal activity against Acinetobacter baumannii” value in series [4] (pH 5.5) was “unable to kill the bacteria”; in series [4] (pH 7.2) it was “active against the bacteria”.
